These results are taken from patent US20150273027A1, “LIQUID PHARMACEUTICAL COMPOSITION OF FACTOR VII POLYPEPTIDE” (Novo Nordisk Healthcare AG, priority 2012, published 2015).

Positions count from the first letter of the chain named.

Experiment [1] has as its target T1, SF-rFVIIa (Homo sapiens, UniProt P08709).
T1 construct: made in house
T1 sequence (P08709 213-466 limits assumed): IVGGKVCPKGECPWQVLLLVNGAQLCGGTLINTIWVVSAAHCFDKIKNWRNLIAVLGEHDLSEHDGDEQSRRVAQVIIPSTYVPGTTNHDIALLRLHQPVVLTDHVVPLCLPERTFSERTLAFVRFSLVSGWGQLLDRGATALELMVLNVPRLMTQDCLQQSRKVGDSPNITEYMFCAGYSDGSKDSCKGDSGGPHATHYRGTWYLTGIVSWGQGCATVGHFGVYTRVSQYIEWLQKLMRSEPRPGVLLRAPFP
T1 sequence (P08709 61-212 limits assumed): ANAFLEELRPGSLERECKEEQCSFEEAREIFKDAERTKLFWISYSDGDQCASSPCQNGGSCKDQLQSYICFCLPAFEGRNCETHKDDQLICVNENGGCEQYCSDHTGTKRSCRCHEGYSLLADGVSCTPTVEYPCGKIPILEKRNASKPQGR
Nature of the experiment: Isothermal titration calorimetry (iTC200) binding to SF-rFVIIa. The settings on record: for Kd: SF-rFVIIa. As to the method: (§1) All proteases were dialyzed extensively in binding buffer: 10 mM HEPES pH 7.4, 150 mM NaCl, 0.005% v/v Surfactant P20, 5 mM CaCl2. All binding experiments were carried out in binding buffer unless otherwise indicated. The active site stabilizing agent set forth Formula I was dissolved in 50 mM Tris pH 8.0 to a final concentration of 9 mM giving a yellow colour. Isothermal titration calorimetry (iTC200, from GE healthcare) was chosen as the method of choice for determining binding parameters. Each iTC200 run involved filling the cell with the protease (approximately 200 μL) and the syringe with the active site stabilizing agent (approximately 40 μL). Temperature was set as required and the protease was allowed to equilibrate under given experimental conditions (approximately 10 minutes). Typically 17-20 injections (of 2-2.5 μL) of active site stabilizing agent into the cell, containing protease, were performed. The first injection was always of 0.2 μL and was discarded from the final data analysis. Stirring speed was set between 700-1000 rpm. Filter period for data collection was 5 sec with a high feedback mode setting. Each titration was spaced by 120 sec. Raw data was processed to set the baseline, integrate each peak to get a final isotherm. This isotherm was fit to a single-site model to yield Kd, stoichiometry (n), ΔH, and ΔS values to complete characterization of binding of active site stabilizing agents to a protease. Each binding experiment was repeated at least twice. Tables 14, 15 and 16 summarizes binding of active site binding agents to SF-FVIIa and Vatreptacog alfa under varying solution conditions as described below.

Experiment [2] addresses T2, V158D/E296V/M298Q-FVIIa (Homo sapiens, UniProt P08709, E356V/M358Q/V218D).
T2 construct: made in house
T2 sequence (P08709 213-466 V218D/E356V/M358Q limits assumed): T1 sequence (P08709 213-466 limits assumed) with V6D, E144V, M146Q
T2 sequence (P08709 61-212 limits assumed): T1 sequence (P08709 61-212 limits assumed)
Nature of the experiment: Isothermal titration calorimetry (iTC200) binding to V158D/E296V/M298Q-FVIIa. As to the method: as §1

Experiment [3] concerns the target T3, rFVIIa (Homo sapiens, UniProt P08709).
T3 construct: made in house
T3 sequence (P08709 213-466 limits assumed): T1 sequence (P08709 213-466 limits assumed)
T3 sequence (P08709 61-212 limits assumed): T1 sequence (P08709 61-212 limits assumed)
Put plainly: Isothermal titration calorimetry (iTC200) binding to rFVIIa. Conditions: for Kd: binding buffer. As to the method:
as §1

The subject of experiment [4] is tail bleeding in F8-KO mice. Nature of the experiment: Tail bleeding in FVIII knock out (F8-KO) mice. It counts as in vivo. The settings on record: dose 3 mg/kg i.v. From the text:
The biological in vivo efficacy and potency of recombinant factor VIIa (rFVIIa) co-formulated with the active site stabilizing agent with Formula I in the molar ratio 1:[…]; 2.5; 5; […] in FVIII knock out (F8-KO) mice (Bi L, Sarkar R, Naas T, Lawler A M, Pain J, Shumaker S L et al. Further characterization of factor VIII-deficient mice created by gene targeting: RNA and protein studies. Blood 1996; 88:3446-).
Tail bleeding was initiated in Isofluran anesthetized F8-KO mice by transection of 4 mm of the tip of the tail 5 min after dosing rFVIIa, rFVIIa:active site stabilizing agent (1:1.75) or vehicle iv in a tail vein in the mice. Bleeding time and blood loss was measured for a 30 minutes period in 37° C. saline as described elsewhere (Elm T; Karpf D M; Øvlisen K; Pelzer H; Ezban M; Kjalke M; Tranholm M. Pharmacokinetics and pharmacodynamics of a new recombinant FVIII (N8) in haemophilia A mice. Haemophilia, 2012; 18 (1), 139-145). […] The bleeding time vs dose of rFVIIa and rFVIIa:active site stabilizing agent (1:1.75) show very similar dose response curves.
The in vivo effect of serum free recombinant FVIIa (SF-rFVIIa) and SF-rFVIIa co-formulated with the active site stabilizing agent set forth in Formula I in the molar ratio 1:2.5 was studied with the same design in the tail bleeding model in F8-KO mice at the concentration 1; 2.5; 5; 10 and 15 mg/kg. […]

Where [5] appears, read: iTC200, binding buffer pH 7.4, 20° C.

For `COc1cccc([C@H](C)NC(=O)CNC(=O)Nc2ccc(C(=N)N)cc2)c1` [Formula A, S-2-[3-(4-Carbamimidoylphenyl)ureido]-N-[1-(3-methoxyphenyl)-ethyl]-acetamide, reference compound], in experiment [1] (setting [5]), the Kd came out at 1780 nM.
Take `N=C(N)c1ccc2[nH]c(-c3cc(CC(=O)N[C@@H](CC(=O)O)C(=O)O)cc(-c4cc(S(N)(=O)=O)ccc4O)c3O)nc2c1` [Formula I, (S)-2-{2-[5-(5-carbamimidoyl-1H-benzoimidazol-2-yl)-6,2′-dihydroxy-5′-sulfamoyl-biphenyl-3-yl]acetylamino}-succinic acid]: the “fold difference in binding at 20° C. and 37° C.” value in experiment [1] (SF-FVIIa) stood at 17 fold; in experiment [2], 21 fold; in experiment [3], 23 fold. Further, the Kd in experiment [1] (binding buffer, 37° C.) worked out at 334 nM; in experiment [1] (setting [5]) it was 20 nM; in experiment [1] (pH 5.5, 20° C.) it was 1560 nM; in experiment [1] (pH 6.5, 20° C.), 43 nM; in experiment [1] (pH 8.5, 20° C.) it was 130 nM; in experiment [2] (binding buffer pH 7.4, 20° C.), 2.18 nM. Also, the Kd in experiment [2] (binding buffer, 37° C.) amounted to 46 nM; in experiment [2] (pH 5.5, 20° C.), 77 nM; in experiment [2] (pH 6.5, 20° C.) it was 9 nM; in experiment [2] (pH 8.5, 20° C.), 6 nM; in experiment [3] (20° C.) it was 12.9 nM; in experiment [3] (37° C.) it was 296 nM.
Take `N=C(N)c1ccc2[nH]c(-c3cc(CC(=O)N[C@H](CC(=O)O)C(=O)O)cc(-c4cc(S(N)(=O)=O)ccc4O)c3O)nc2c1` [Formula II, (R)-2-{2-[5-(5-carbamimidoyl-1H-benzoimidazol-2-yl)-6,2′-dihydroxy-5′-sulfamoyl-biphenyl-3-yl]acetylamino}-succinic acid]: the Kd in experiment [1] (setting [5]) was 12 nM.
With “Vatreptacog Alfa: FVIIa sequence variant, V158D/E296V/M298Q-FVII, three amino acids of the wild-type human sequence replaced”, in experiment [4], the “In vivo tail bleeding as blood loss, mean” value worked out at 1207 nmol haemoglobin.
